Reference: US20120165319A1, “INHIBITORS OF INTERLEUKIN-1 BETA CONVERTING ENZYME” (VERTEX PHARMACEUTICALS INCORPORATED, priority 1995, published 2012)

Key:
[1] = system: IL-1β, human peripheral blood mononuclear cells (PBMC); experiment: PBMC cell assay: IL-1β assay with human PBMC or enriched adherent mononuclear cells, LPS-stimulated; type: cell-based
Excerpt: IL-1β Assay with a Mixed Population of Human Peripheral Blood Mononuclear Cells (PBMC) or Enriched Adherent Mononuclear Cells
Processing of pre-IL-1β by ICE can be measured in cell culture using a variety of cell sources. Human PBMC obtained from healthy donors provides a mixed population of lymphocyte subtypes and mononuclear cells that produce a spectrum of interleukins and cytokines in response to many classes of physiological stimulators. Adherent mononuclear cells from PBMC provides an enriched source of normal monocytes for selective studies of cytokine production by activated cells.
An initial dilution series of test compound in DMSO or ethanol is prepared, with a subsequent dilution into RPMI-10% FBS media (containing 2 mM L-glutamine, 10 mM HEPES, 50 U and 50 ug/ml pen/strep) respectively to yield drugs at 4× the final test concentration containing 0.4% DMSO or 0.4% ethanol. The final concentration of DMSO is 0.1% for all drug dilutions. A concentration titration which brackets the apparent Ki for a test compound determined in an ICE inhibition assay is generally used for the primary compound screen.
Generally 5-6 compound dilutions are tested and the cellular component of the assay is performed in duplicate, with duplicate ELISA determinations on each cell culture supernatant.
PBMC Isolation and IL-1 Assay:
Buffy coat cells isolated from one pint human blood (yielding 40-45 ml final volume plasma plus cells) are diluted with media to 80 ml and LeukoPREP separation tubes (Becton Dickinson) are each overlaid with 10 ml of cell suspension. After 15 min centrifugation at 1500-1800×g, the plasma/media layer is aspirated and then the mononuclear cell layer is collected with a Pasteur pipette and transferred to a 15 ml conical centrifuge tube (Corning). Media is added to bring the volume to 15 ml, gently mix the cells by inversion and centrifuge at 300×g for 15 min. Resuspend the PBMC pellet in a small volume of media, count cells and adjust to 6×10^6 cells/ml.
For the cellular assay, 1.0 ml of the cell suspension is added to each well of a 24-well flat bottom tissue culture plate (Corning), 0.5 ml test compound dilution and 0.5 ml LPS solution (Sigma #L-3012; 20 ng/ml solution prepared in complete RPMI media; final LPS concentration 5 ng/ml). The 0.5 ml additions of test compound and LPS are usually sufficient to mix the contents of the wells. Three control mixtures are run per experiment, with either LPS alone, solvent vehicle control, and/or additional media to adjust the final culture volume to 2.0 ml. The cell cultures are incubated for 16-18 hr at 37° C. in the presence of 5% CO2.
At the end of the incubation period, cells are harvested and transferred to 15 ml conical centrifuge tubes. After centrifugation for 10 min at 200×g, supernatants are harvested and transferred to 1.5 ml Eppendorf tubes. It may be noted that the cell pellet may be utilized for a biochemical evaluation of pre-IL-1β and/or mature IL-1β content in cytosol extracts by western blotting or ELISA with pre-IL-1β specific antisera.
Isolation of Adherent Mononuclear Cells:
PBMC are isolated and prepared as described above. Media (1.0 ml) is first added to wells followed by 0.5 ml of the PBMC suspension. After a one hour incubation, plates are gently shaken and nonadherent cells aspirated from each well. Wells are then gently washed three times with 1.0 ml of media and final resuspended in 1.0 ml media. The enrichment for adherent cells generally yields 2.5−3.0×10^5 cells per well. The addition of test compounds, LPS, cell incubation conditions and processing of supernatants proceeds as described above.
We have used Quantikine kits (R&D Systems) for measurement of mature IL-1β. Assays are performed according to the manufacturer's directions. Mature IL-1β levels of about 1-3 ng/ml in both PBMC and adherent mononuclear cell positive controls are observed. […]

ICE = target: T1, ICE (Homo sapiens, UniProt P29466); experiment: Enzyme assay with UV-visible substrate (visible ICE assay, Succinyl-Tyr-Val-Ala-Asp-pNitroanilide); type: biochemical
T1 sequence (P29466 120-297 limits assumed): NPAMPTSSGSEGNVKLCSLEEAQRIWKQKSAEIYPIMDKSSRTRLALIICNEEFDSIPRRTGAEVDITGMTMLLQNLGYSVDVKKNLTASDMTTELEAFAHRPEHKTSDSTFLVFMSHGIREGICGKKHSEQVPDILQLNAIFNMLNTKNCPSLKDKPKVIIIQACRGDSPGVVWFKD
T1 sequence (P29466 317-404 limits assumed): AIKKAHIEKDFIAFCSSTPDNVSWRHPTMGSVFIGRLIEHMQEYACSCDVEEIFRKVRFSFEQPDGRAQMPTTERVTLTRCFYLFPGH
Protocol: 1. Enzyme Assay with Uv-Visible Substrate
This assay is run using an Succinyl-Tyr-Val-Ala-Asp-pNitroanilide substrate. Synthesis of analogous substrates is described by L. A. Reiter (Int. J. Peptide Protein Res. 12, 87-96 (1994)). The assay mixture contains:
The visible ICE assay is run in a 96-well microtiter plate. Buffer, ICE and DMSO (if inhibitor is present) are added to the wells in the order listed. The components are left to incubate at room temperature for 15 minutes starting at the time that all components are present in all wells. The microtiter plate reader is set to incubate at 37° C. After the 15 minute incubation, substrate is added directly to the wells and the reaction is monitored by following the release of the chromophore (pNA) at 405-603 nm at 37° C. for 20 minutes. A linear fit of the data is performed and the rate is calculated in mOD/min. DMSO is only present during experiments involving inhibitors, buffer is used to make up the volume to 100 μl in the other experiments.
For determination of enzyme inhibition constants (Ki) or the mode of inhibition (competitive, uncompetitive or noncompetitive), the rate data determined in the enzyme assays at varying inhibitor concentrations are computer-fit to standard enzyme kinetic equations (see I. H. Segel, Enzyme Kinetics, Wiley-Interscience, 1975).

[2] = Homo sapiens, PBMC, * = values obtained upon reassay
[3] = * = values obtained upon reassay

Structure (SMILES)	IC50 [1, 2]	Ki (ICE; Table 5)	Ki (ICE; Table 17)	further results
CC(=O)N[C@H]1CCC(=O)N2CCC[C@@H](C(=O)N[C@H](C=O)CC(=O)O)N2C1=O [Compound 214c, [3S(1S,9S)]3-(9-Acetylamino-6,10-dioxo-1,2,3,4,7,8,9,10-octahydro-6H-pyridazino-[1,2-a][1,2]diazepine-1-carboxamido)-4-oxobutanoic acid]	5000 nM	1200 nM	–	–
CS(=O)(=O)N[C@H]1CCC(=O)N2CCC[C@@H](C(=O)N[C@@H](CC(=O)O)C(=O)c3ncc(-c4c(Cl)cccc4Cl)o3)N2C1=O [Compound 220b, [3S(1S,9S)]-4-[5-(2,6-Dichlorophenyl)oxazol-2-yl]-3-(6,10-dioxo-9-methylsulphonylamino-1,2,3,4,7,8,9,10-octahydro-6H-pyridazino[1,2-a][1,2]diazepine-1-carboxamido)-4-oxobutanoic acid]	2120 nM	600 nM	–	–
O=C[C@@H](CCC(=O)O)NC(=O)[C@@H]1CCCN2C(=O)CC[C@H](NC(=O)c3ccccc3)C(=O)N12 [Compound 238e, [4R,(1S,9S)]-4-[9-(Benzoylamino)-6,10-dioxo-1,2,3,4,7,8,9,10-octahydro-6H-pyridazino-[1,2-a][1,2]diazepine-1-carboxamido]-5-oxopentanoic acid]	4250 nM	500 nM	–	–
C[C@H]1CC(=O)N2CCC[C@@H](C(=O)N[C@H](C=O)CC(=O)O)N2C(=O)[C@H]1NC(=O)c1ccccc1 [Compound 257, [3S(1S,8S,9S)]3-(9-benzoylamino-6,10-dioxo-8-methyl-1,2,3,4,7,8,9,10-octahydro-6H-pyridazino-[1,2-a][1,2]diazepine-1-carboxamido)-4-oxobutanoic acid]	11000 nM	13 nM	–	IC50 [1, 3]: 6600 nM
CS(=O)(=O)N[C@H]1CCC(=O)N2CCC[C@@H](C(=O)N[C@@H](CC(=O)O)C(=O)CSc3nnnn3-c3ccccc3)N2C1=O [Compound 280b, [3S(1S,9S)]3-(6,10-Dioxo-9-methanesulphonamido-1,2,3,4,7,8,9,10-octahydro-6H-pyridazino[1,2-a][1,2]diazepine-1-carboxamido)-4-oxo-5(1-phenyl-1H-tetrazole-5-thio)pentanoic acid]	–	–	–	IC50 ([1]; Table 17): 13000 nM
O=C[C@H](CC(=O)O)NC(=O)[C@@H]1CCCN2C(=O)CC[C@H](NC(=O)C3CC3)C(=O)N12 [Compound 413]	6200 nM	750 nM	–	–
COC(=O)N[C@H]1CCC(=O)N2CCC[C@@H](C(=O)N[C@H](C=O)CC(=O)O)N2C1=O [Compound 419]	> 8000 nM	280 nM	–	–
CNC(=O)N[C@H]1CCC(=O)N2CCC[C@@H](C(=O)N[C@H](C=O)CC(=O)O)N2C1=O [Compound 420]	8000 nM	1200 nM	–	IC50 [1, 3]: > 8000 nM
CCS(=O)(=O)N[C@H]1CCC(=O)N2CCC[C@@H](C(=O)N[C@H](C=O)CC(=O)O)N2C1=O [Compound 421]	4300 nM	200 nM	–	IC50 [1, 3]: 4600 nM
O=C[C@H](CC(=O)O)NC(=O)[C@@H]1CCCN2C(=O)CC[C@H](NC(=O)C3CCCCC3)C(=O)N12 [Compound 426]	4500 nM	90 nM	–	IC50 [1, 3]: 2500 nM
CC(=O)Nc1ccccc1C(=O)N[C@H]1CCC(=O)N2CCC[C@@H](C(=O)N[C@H](C=O)CC(=O)O)N2C1=O [Compound 430]	> 8000 nM	60 nM	–	–
O=C[C@H](CC(=O)O)NC(=O)[C@@H]1CCCN2C(=O)CC[C@H](NC(=O)c3ccnc4ccccc34)C(=O)N12 [Compound 435]	4400 nM	8 nM	–	–
O=C[C@H](CC(=O)O)NC(=O)[C@@H]1CCCN2C(=O)CC[C@H](NC(=O)c3cnc4ccccc4c3)C(=O)N12 [Compound 436]	2700 nM	7.5 nM	–	–
CS(=O)(=O)N[C@H]1CCC(=O)N2CCC[C@@H](C(=O)N[C@@H](CC(=O)O)C(=O)COC(=O)c3ccccc3Oc3ccccc3)N2C1=O [Compound 505c, [3S(1S,9S)]3-[6,10-Dioxo-9-(methanesulphonylamino)-1,2,3,4,7,8,9,10-octahydro-6H-pyridazino[1,2-a][1,2]diazepine-1-carboxamido]-4-oxo-5-(2-phenoxybenzoyloxy)pentanoic acid]	–	–	–	IC50 ([1]; Table 17): 1500 nM
CS(=O)(=O)N[C@H]1CCC(=O)N2CCC[C@@H](C(=O)N[C@@H](CC(=O)O)C(=O)COC(=O)c3cccc(Oc4ccccc4)c3)N2C1=O [Compound 505d, [3S(1S,9S)]3-[6,10-Dioxo-9-(methanesulphonylamino)-1,2,3,4,7,8,9,10-octahydro-6H-pyridazino[1,2-a][1,2]diazepine-1-carboxamido]-4-oxo-5-(3-phenoxybenzoyloxy)pentanoic acid]	–	–	–	IC50 ([1]; Table 17): > 20000 nM
CS(=O)(=O)N[C@H]1CCC(=O)N2CCC[C@@H](C(=O)N[C@@H](CC(=O)O)C(=O)COc3nc4ccccn4c(=O)c3Cl)N2C1=O [Compound 505f, [3S(1S,9S)]5-(3-Chloro-2-oxy-4H-pyrido[1,2-a]pyrimidin-4-one)-3-[6,10-dioxo-9-(methylsulphonyl)amino-1,2,3,4,7,8,9,10-octahydro-6H-pyridazino[1,2-a][1,2]diazepine-1-carboxamido]-4-oxopentanoic acid]	–	–	–	IC50 ([1]; Table 17): 550 nM
O=C[C@H](CC(=O)O)NC(=O)[C@@H]1CCCN2C(=O)CCN(NC(=O)/C=C/c3ccc(Cl)c(Cl)c3)C(=O)N12 [Compound 1115]	–	–	250 nM	–
O=C[C@H](CC(=O)O)NC(=O)[C@@H]1CCCN2C(=O)CCN(NC(=O)/C=C/c3ccc4c(c3)OCO4)C(=O)N12 [Compound 1116]	–	–	215 nM	–
O=C[C@H](CC(=O)O)NC(=O)[C@@H]1CCCN2C(=O)CCN(NC(=O)CC3CCCCC3)C(=O)N12 [Compound 1118]	–	–	380 nM	–
O=C[C@H](CC(=O)O)NC(=O)[C@@H]1CCCN2C(=O)CCN(NC(=O)CCC3CCCCC3)C(=O)N12 [Compound 1119]	–	–	515 nM	–
O=C[C@H](CC(=O)O)NC(=O)[C@@H]1CCCN2C(=O)CCN(NC(=O)C(=O)Nc3ccc(Cl)cc3)C(=O)N12 [Compound 1120]	–	–	95 nM	–
O=C[C@H](CC(=O)O)NC(=O)[C@@H]1CCCN2C(=O)CCN(NC(=O)Cc3ccc4c(c3)OCO4)C(=O)N12 [Compound 1121]	–	–	170 nM	–
Cc1cc(C)c(CC(=O)NN2CCC(=O)N3CCC[C@@H](C(=O)N[C@H](C=O)CC(=O)O)N3C2=O)c(C)c1 [Compound 1122]	–	–	400 nM	–
COc1cc(C(=O)C(=O)NN2CCC(=O)N3CCC[C@@H](C(=O)N[C@H](C=O)CC(=O)O)N3C2=O)cc(OC)c1OC [Compound 1124]	–	–	270 nM	–
